{"source": "patent US20240239789A1", "about": "“SALTS OF 2-BRO[…] DIETHYLAMIDE” (Ceruvia Lifesciences LLC, priority 2022, published 2024)", "type_in_all_cases": "physicochemical", "key": {"[1]": {"assay": "Dynamic vapor sorption (DVS) moisture sorption analysis", "description": "(§1) Sorption isotherms were obtained using a Hiden Isochema moisture sorption analyser (model IGAsorp), controlled by IGAsorp Systems Software V6.50.48. The sample was maintained at a constant temperature (25° C.) by the instrument controls. The humidity was controlled by mixing streams of dry and wet nitrogen, with a total flow of 250 mL/min. The instrument was verified for relative humidity content by measuring three calibrated Rotronic salt solutions (10-50-88%). The weight change of the sample was monitored as a function of humidity by a microbalance (accuracy +/−0.005 mg). A defined amount of sample was placed in a tared mesh stainless steel basket under ambient conditions. A full experimental cycle typically consisted of three scans (sorption, desorption and sorption) at a constant temperature (25° C.) and 10% RH intervals over a 0-90% range (60 minutes for each humidity level)."}, "[2]": {"assay": "XRPD analysis ex DVS following equilibration at extremes of humidity", "conditions": "0% and 90% relative humidity", "from_the_text": "The crystalline salts of 2-Br-LSD were characterized by their powder X-ray diffraction patterns. Powder X-ray diffractograms of the crystalline salts of 2-Br-LSD described herein were collected on a PANalytical X'pert PRO diffractometer using Cu Kα radiation (45 kV, 40 mA), θ-θ goniometer, focusing mirror, divergence slit (½″), soller slits at both incident and divergent beam (4 mm) and a PIXcel detector. Data was presented using X'Pert Data Viewer, version 1.2d. XRPD patterns were acquired under ambient conditions via a transmission foil sample stage (polyimide—Kapton®, 12.7 μm thickness film). The data collection range was 2.994-35° 2θ with a continuous scan speed of 0.202004° s^−1. Lists of major XRPD peaks (relative intensity ≥10%) for the crystalline salts of the present disclosure are tabulated below.\nas §1, with “A defined amount of sample was placed in a tared mesh stainless steel basket under ambient conditions. A full experimental cycle typically consisted of three scans (sorption, desorption and sorption) at a constant temperature (25° C.) and 10% RH intervals over a 0-90% range (60 minutes for each humidity level).” left out"}, "[3]": {"assay": "Thermogravimetric analysis (TGA) weight loss after drying", "conditions": "after drying in vacuo at 50° C. for 18 hours; between 25° C. and 200° C.; heating rate 20° C./min", "description": "TGA data were collected on a TA Instruments Discovery TGA equipped with a 25-position auto-sampler. The instrument was calibrated using a certified weight and certified Alumel and Nickel for temperature. A predefined amount of the sample, ca. 5 mg, was loaded into a pre-tared aluminum ACCUPIK™ sample pan and platinum crucible and was heated at 20° C./min from ambient (room) temperature to 400° C. unless otherwise stated. A nitrogen purge at 25 mL/min was maintained over the sample. The instrument control, data acquisition and analysis were performed with TA Instruments TRIOS software v4.1.1.33073."}}}
{"smiles": "Br.CCN(CC)C(=O)[C@@H]1C=C2c3cccc4[nH]c(Br)c(c34)C[C@H]2N(C)C1", "note": "[2-Br-LSD hydrobromide (Form 1), 2-bromolysergic acid diethylamide hydrobromide]", "values": [{"measurement": "weight change upon dynamic vapor sorption analysis", "setting": "[1]; 25° C., RH range 0-90%, 10% RH intervals, 60 minutes for each humidity level", "value": "less than 0.5%"}, {"measurement": "water retained at 0% RH (reversibility of water uptake)", "setting": "[1]; 25° C., desorption to 0% RH", "value": "no water was retained"}, {"measurement": "further weight increase between 60% RH and 90% RH", "setting": "[1]; 25° C., initial sorption cycle, between 60% RH and 90% RH", "value": 0.2, "unit": "wt %"}, {"measurement": "water gained during initial sorption cycle up to 60% RH", "setting": "[1]; 25° C., initial sorption cycle, up to 60% RH", "value": 0.21, "unit": "%"}, {"measurement": "total water uptake", "setting": "[1]; 25° C., initial sorption cycle, up to 90% RH", "value": 0.4, "unit": "%"}, {"measurement": "hygroscopicity", "setting": "[1]; definition in b65: TGA <1% weight loss and DVS <about 0.5% weight change", "value": "non-hygroscopic"}, {"measurement": "solid form change following equilibration at extremes of humidity", "setting": "[2]", "value": "no form change occurred"}, {"measurement": "weight loss upon thermogravimetric analysis", "setting": "[3]", "value": "less than 1%"}]}
